{
  "source": "patent US20120141398A1",
  "about": "“HAIR DYE CONTAINING ONE OR MORE EDIBLE OR COSMETIC COLORS” (priority 2010, published 2012)",
  "origin": "cited, not measured here",
  "key": {"[1]": {"test_system": "Salmonella typhimurium"}, "[2]": {"test_system": "small rat"}, "[3]": {"test_system": "large rat", "conditions": "text b11, species not given"}},
  "data": [
    {"smiles": "COc1ccc(N)cc1N", "note": "[2,4 diaminoanisole]", "values": [
      {"measurement": "Ames Test (mutagenicity)", "setting": "[1]", "result": "+"}
    ]},
    {"smiles": "Oc1cccc(O)c1", "note": "[Resorcinol]", "values": [
      {"measurement": "median lethal dose", "setting": "[2]; rat, in vivo", "result": 200, "unit": "mg/kg"}
    ]},
    {"smiles": "Nc1ccccc1N", "note": "[o-phenylenediamine]", "values": [
      {"measurement": "Ames Test (mutagenicity)", "setting": "[1]", "result": "+"}
    ]},
    {"smiles": "CCc1ccc(N)cc1N", "note": "[2,4-diamino-ethylbenzene]", "values": [
      {"measurement": "Ames Test (mutagenicity)", "setting": "[1]", "result": "+"}
    ]},
    {"smiles": "Nc1ccc(N)cc1", "note": "[p-phenylenediamine]", "values": [
      {"measurement": "median lethal dose", "setting": "[3]", "result": 80, "unit": "mg/kg"},
      {"measurement": "Ames Test (mutagenicity)", "setting": "[1]", "result": "+"}
    ]},
    {"smiles": "Nc1cc([N+](=O)[O-])ccc1O", "note": "[2-amino-4-nitrophenolate]", "values": [
      {"measurement": "Ames Test (mutagenicity)", "setting": "[1]", "result": "+"}
    ]},
    {"smiles": "Nc1ccc(OCCO)cc1[N+](=O)[O-]", "note": "[4-amino-3-nitro-phenoxyethanol]", "values": [
      {"measurement": "Ames Test (mutagenicity)", "setting": "[1]", "result": "+"}
    ]},
    {"smiles": "Nc1cccc(N)c1", "note": "[m-phenylenediamine]", "values": [
      {"measurement": "Ames Test (mutagenicity)", "setting": "[1]", "result": "+"}
    ]},
    {"smiles": "Nc1ccccc1O", "note": "[2-Aminophenol]", "values": [
      {"measurement": "Median Lethal Dose/Kg", "setting": "[2]; small rat", "result": "800 g (small rat) g/Kg"}
    ]}
  ]
}
